For data set [1], the species on record is Rattus norvegicus. Put plainly: Vasorelaxation activity in rat mesenteric arteries after contractile stimulus(K+ depolarization).
Data set [2] is filed under the species Rattus norvegicus. Put plainly: Vasorelaxation activity in rat mesenteric arteries after contractile stimulus (norepinephrine).
The target in data set [3] is T1, Voltage-dependent L-type calcium channel subunit alpha-1C (Homo sapiens, UniProt Q13936). Put plainly: Inhibition of VGCC alpha-1C-b expressed in CHO cells -30 mV holding potential, peak Ba2+ current, at 10e-5 M. Format: functional, cell-based.
The nature of data set [4]: Inhibition of [3H]P1075 binding to ATP-sensitive potassium channels of rat cardiac membranes. It counts as cell membranes, Membrane.
Data set [5] concerns the target T1, Voltage-dependent L-type calcium channel subunit alpha-1C. In words: Inhibition of VGCC alpha-1C-b expressed in CHO cells -80 mV holding potential, peak Ba2+ current, at 10e-5 M. Format: functional, cell-based. Conditions: hamster.
Data set [6] shares this target. Put plainly: Inhibition of VGCC alpha-1C-b expressed in CHO cells -30 mV holding potential, peak Ba2+ current, at 10e-4 M. It counts as functional, cell-based.
For data set [7] the target is unchanged. Put plainly: Inhibition of VGCC alpha-1C-b expressed in CHO cells -80 mV holding potential, peak Ba2+ current, at 10e-4 M. It counts as functional, cell-based.
Data set [8] is described as follows: Vasorelaxation in rat mesenteric arteries after contractile stimulus (norepinephrine+glibenclamide). It counts as functional.
For data set [9], the species on record is Rattus norvegicus. Put plainly: Vasorelaxation activity in rat mesenteric arteries after contractile stimulus(K+ depolarization).
The target in data set [10] is T1, Voltage-dependent L-type calcium channel subunit alpha-1C. In words: Inhibition of VGCC alpha-1C-b expressed in CHO cells -30 mV holding potential, peak Ba2+ current, at 10e-6 M. Format: functional, cell-based.
The target is the same in data set [11]. In words: Inhibition of VGCC alpha-1C-b expressed in CHO cells -80 mV holding potential, peak Ba2+ current, at 10e-6 M. Format: functional, cell-based.

T1 sequence (Q13936 whole entry): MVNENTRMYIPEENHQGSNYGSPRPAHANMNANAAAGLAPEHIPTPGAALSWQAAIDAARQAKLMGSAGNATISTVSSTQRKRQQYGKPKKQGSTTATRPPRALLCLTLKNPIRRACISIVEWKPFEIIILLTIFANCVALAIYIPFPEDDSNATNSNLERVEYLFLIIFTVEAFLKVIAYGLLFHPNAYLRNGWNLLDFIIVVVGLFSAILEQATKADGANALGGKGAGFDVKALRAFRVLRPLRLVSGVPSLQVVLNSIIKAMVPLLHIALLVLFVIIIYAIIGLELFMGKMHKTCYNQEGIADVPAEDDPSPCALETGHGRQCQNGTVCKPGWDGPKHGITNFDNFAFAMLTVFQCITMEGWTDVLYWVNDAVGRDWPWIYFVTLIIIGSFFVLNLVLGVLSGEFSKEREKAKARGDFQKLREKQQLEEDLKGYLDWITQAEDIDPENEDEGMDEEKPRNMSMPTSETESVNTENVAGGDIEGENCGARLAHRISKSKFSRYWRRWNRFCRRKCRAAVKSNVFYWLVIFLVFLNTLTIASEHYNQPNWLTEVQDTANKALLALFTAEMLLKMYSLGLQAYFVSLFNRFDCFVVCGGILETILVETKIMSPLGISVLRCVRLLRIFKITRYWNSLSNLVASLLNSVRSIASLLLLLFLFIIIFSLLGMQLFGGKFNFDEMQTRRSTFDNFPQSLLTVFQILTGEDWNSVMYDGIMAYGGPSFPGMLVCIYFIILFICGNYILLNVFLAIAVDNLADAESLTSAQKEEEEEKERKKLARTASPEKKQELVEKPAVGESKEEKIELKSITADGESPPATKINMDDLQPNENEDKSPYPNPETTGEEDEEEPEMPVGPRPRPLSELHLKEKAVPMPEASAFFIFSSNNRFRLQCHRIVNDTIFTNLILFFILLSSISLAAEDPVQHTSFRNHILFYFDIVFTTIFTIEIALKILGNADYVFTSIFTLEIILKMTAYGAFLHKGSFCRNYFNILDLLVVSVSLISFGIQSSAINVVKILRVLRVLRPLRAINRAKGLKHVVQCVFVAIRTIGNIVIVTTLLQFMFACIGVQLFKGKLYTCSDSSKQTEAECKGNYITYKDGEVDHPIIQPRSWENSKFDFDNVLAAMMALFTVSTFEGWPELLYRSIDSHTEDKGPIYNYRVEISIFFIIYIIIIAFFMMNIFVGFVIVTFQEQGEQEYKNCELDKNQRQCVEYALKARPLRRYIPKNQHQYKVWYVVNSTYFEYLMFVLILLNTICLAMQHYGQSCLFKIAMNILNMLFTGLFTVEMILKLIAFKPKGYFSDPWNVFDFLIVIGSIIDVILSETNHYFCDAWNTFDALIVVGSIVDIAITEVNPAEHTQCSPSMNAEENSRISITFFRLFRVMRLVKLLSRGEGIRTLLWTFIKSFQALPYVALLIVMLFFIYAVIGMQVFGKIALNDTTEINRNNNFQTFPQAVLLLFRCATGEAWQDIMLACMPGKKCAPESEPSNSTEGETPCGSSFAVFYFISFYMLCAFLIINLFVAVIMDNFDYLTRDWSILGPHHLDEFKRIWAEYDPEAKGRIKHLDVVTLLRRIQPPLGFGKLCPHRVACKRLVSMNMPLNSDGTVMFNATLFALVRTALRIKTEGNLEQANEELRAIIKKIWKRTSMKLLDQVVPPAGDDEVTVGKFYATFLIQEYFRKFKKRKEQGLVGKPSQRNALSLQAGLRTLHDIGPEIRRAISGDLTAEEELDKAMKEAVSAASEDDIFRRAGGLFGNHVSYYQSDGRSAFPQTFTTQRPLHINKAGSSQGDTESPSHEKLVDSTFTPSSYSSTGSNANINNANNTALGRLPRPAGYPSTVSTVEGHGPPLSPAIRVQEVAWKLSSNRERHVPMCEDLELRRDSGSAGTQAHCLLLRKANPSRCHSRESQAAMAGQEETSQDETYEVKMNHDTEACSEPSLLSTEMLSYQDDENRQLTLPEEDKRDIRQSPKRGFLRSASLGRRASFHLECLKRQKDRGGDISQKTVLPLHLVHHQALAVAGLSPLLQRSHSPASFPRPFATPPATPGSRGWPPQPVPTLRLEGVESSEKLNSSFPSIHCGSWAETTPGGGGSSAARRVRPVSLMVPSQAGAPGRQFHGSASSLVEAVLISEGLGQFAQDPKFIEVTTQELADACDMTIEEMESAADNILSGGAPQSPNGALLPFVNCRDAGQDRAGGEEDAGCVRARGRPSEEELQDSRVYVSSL

For the molecule `CCOC(=O)C1=C(C)N=C(C)/C(=C(/O)OCC)C1c1cc(N/C(=N/C(C)C(C)(C)C)NC#N)ccc1OC(F)F` (stereo not drawn), it took 955 nM to reach a half-maximal effect in the data set filed under Rattus norvegicus [1] (EC50).
Take `CC(/N=C(\NC#N)Nc1ccc(OC(F)F)cc1)C(C)(C)C` (stereo not drawn): the EC50 is 288 nM in the data set listed under Rattus norvegicus [2] and 7410 nM in the data set listed under Rattus norvegicus [1]. Further, the Peak current is 10.8% in data set [3], 58.2% in [5], 2.4% in [6] and 26.7% in data set [7]. The molecule further returned a pIC50 in [4] of 8.7. Moreover, the “Log EC50” value in [8] is on record as -6.12.
Molecule `CO/C(O)=C1\C(C)=NC(C)=C(C#N)C1c1cc(N/C(=N/C(C)C(C)(C)C)NC#N)ccc1OC(F)F` (stereo not drawn) had an EC50 in the data set listed under Rattus norvegicus [9] of 2340 nM.
As for `COC(=O)C1=C(C)N=C(C)/C(=C(/O)OC)C1c1cc(N/C(=N/C(C)C(C)(C)C)NC#N)ccc1OC(F)F` (stereo not drawn), the EC50 in the data set filed under Rattus norvegicus [2] was 200 nM; in the data set listed under Rattus norvegicus [1], 372 nM. Also, the Peak current in data set [3] was determined as 2.5%; in data set [10], 9.2%; in data set [5], 38.2%; in data set [11] it was 60.4%. Also, the pIC50 in data set [4] was determined as 6.2. Also, the “Log EC50” value in data set [8] was -6.2.

The term EC50 denotes the concentration at which the effect is half-maximal. A high value points to lower potency in that assay. One may read the pIC50 as the IC50 on a negative log10 scale, so that one unit is a factor of ten. A higher pIC50 goes with a low IC50.

Values taken from ChEMBL document CHEMBL1132542, “Vasorelaxation by new hybrid compounds containing dihydropyridine and pinacidil-like moieties” (J Med Chem, 1999).
